Laboratory results: DBAASP
In brackets after ≈: the same amount, converted by molar mass.

How the values were obtained:
Assay in all cases: ≥ marks a high value that may be exact or a test limit, other limits are often not marked, values filed in µg/mL are converted to µM
[1] = system: Bacillus subtilis KCTC 3068
[2] = system: Staphylococcus epidermidis KCTC 1917
[3] = system: Pseudomonas aeruginosa KCTC 1637
[4] = system: Escherichia coli KCTC 1682
[5] = system: Enterococcus faecalis
[6] = system: Salmonella typhimurium KCTC 1926
[7] = system: Enterococcus faecium VR
[8] = system: Staphylococcus aureus MR
[9] = system: Enterococcus faecium
[10] = system: Staphylococcus aureus KCTC 1621
[11] = system: Enterococcus faecalis VR
[12] = system: Salmonella enterica subsp. enterica serovar Typhimurium ATCC 14028
[13] = system: Streptococcus pyogenes ATCC 19615
[14] = system: Klebsiella pneumoniae ATCC 13883
[15] = system: Enterococcus faecalis ATCC 29212
[16] = system: Staphylococcus aureus ATCC 25923
[17] = system: Bacillus subtilis
[18] = system: Pseudomonas aeruginosa ATCC 27853
[19] = system: Staphylococcus epidermidis ATCC 51625
[20] = system: Escherichia coli
[21] = system: Staphylococcus aureus ATCC BAA-44
[22] = system: Acinetobacter baumannii ATCC 19606
[23] = system: Cryptococcus neoformans ATCC 208821
[24] = system: Candida albicans ATCC 90028
[25] = system: Klebsiella pneumoniae ATCC 700603
[26] = system: Escherichia coli ATCC 25922
[27] = system: Staphylococcus aureus ATCC 43300
[28] = system: Micrococcus luteus A270
[29] = system: Listeria innocua
[30] = system: Salmonella enterica subsp. enterica serovar Enteritidis

SMILES | MIC [1] | MIC [2] | MIC [3] | MIC [4] | MIC [5] | MIC [6] | MIC [7] | MIC [8] | MIC [9] | MIC [10] | MIC [11] | MIC [18] | MIC [20] | also measured
CC[C@H](C)[C@H](NC(=O)[C@H](CS)NC(=O)[C@H](Cc1cnc[nH]1)NC(=O)[C@H](CC(C)C)NC(=O)[C@H](C)N)C(=O)N[C@@H](C)C(=O)N[C@@H](CC(C)C)C(=O)N[C@@H](CCCN=C(N)N)C(=O)N[C@@H](CCCCN)C(=O)N[C@@H](CCCCN)C(N)=O [ALHCIALRKK] | 7.5 µM (≈ 8.64 µg/mL) | 15 µM (≈ 17.3 µg/mL) | 15 µM (≈ 17.3 µg/mL) | 15 µM (≈ 17.3 µg/mL) | 15 µM (≈ 17.3 µg/mL) | 15 µM (≈ 17.3 µg/mL) | 3.8 µM (≈ 4.38 µg/mL) | 7.5 µM (≈ 8.64 µg/mL) | 15 µM (≈ 17.3 µg/mL) | 7.5 µM (≈ 8.64 µg/mL) | 15 µM (≈ 17.3 µg/mL) |  |  | 
CC(C)C[C@H](N)C(=O)N[C@@H](C)C(=O)N[C@@H](Cc1cnc[nH]1)C(=O)N[C@@H](CCCN=C(N)N)C(=O)N[C@@H](Cc1ccc(O)cc1)C(=O)N[C@@H](Cc1cnc[nH]1)C(=O)O [LAHRYH] |  |  |  |  |  |  |  |  |  |  |  |  | 2 µM (≈ 1.59 µg/mL) | MIC [28]: 9 µM (≈ 7.16 µg/mL); MIC [29]: 10 µM (≈ 7.96 µg/mL); MIC [30]: 9 µM (≈ 7.16 µg/mL)

Continued, in another order:

MIC [1] | MIC [2] | MIC [3] | MIC [4] | MIC [5] | MIC [6] | MIC [7] | MIC [8] | MIC [9] | MIC [10] | MIC [11] | MIC [18] | MIC [20] | SMILES | also measured
30 µM (≈ 35.6 µg/mL) | 15 µM (≈ 17.8 µg/mL) | 30 µM (≈ 35.6 µg/mL) | 30 µM (≈ 35.6 µg/mL) | 30 µM (≈ 35.6 µg/mL) | 15 µM (≈ 17.8 µg/mL) | 30 µM (≈ 35.6 µg/mL) | 30 µM (≈ 35.6 µg/mL) | 30 µM (≈ 35.6 µg/mL) | 30 µM (≈ 35.6 µg/mL) | 30 µM (≈ 35.6 µg/mL) |  |  | CC(C)C[C@H](NC(=O)[C@H](CS)NC(=O)[C@H](CCCN=C(N)N)NC(=O)[C@H](C)NC(=O)[C@H](C)N)C(=O)N[C@@H](CO)C(=O)N[C@@H](CCC(N)=O)C(=O)N[C@@H](CCCN=C(N)N)C(=O)N[C@@H](CCCN=C(N)N)C(=O)N[C@@H](CCCCN)C(N)=O [AARCLSQRRK] | 
 |  |  |  |  |  |  |  |  |  |  | 4 µM (≈ 13.4 µg/mL) | 2 µM (≈ 6.72 µg/mL) | CC(C)C[C@H](NC(=O)[C@H](CCCN=C(N)N)NC(=O)[C@H](CO)NC(=O)[C@H](Cc1cnc[nH]1)NC(=O)[C@H](CCCN=C(N)N)NC(=O)[C@@H]1CCCN1C(=O)[C@H](CCCN=C(N)N)NC(=O)[C@H](Cc1cnc[nH]1)NC(=O)[C@@H]1CCCN1C(=O)[C@H](CO)NC(=O)[C@H](CC(C)C)NC(=O)[C@H](CO)NC(=O)[C@H](CCCN=C(N)N)NC(=O)[C@H](CCCCN)NC(=O)[C@@H](NC(=O)[C@@H](NC(=O)CNC(=O)[C@H](CCCN=C(N)N)NC(=O)[C@H](Cc1cnc[nH]1)NC(=O)[C@H](Cc1c[nH]c2ccccc12)NC(=O)[C@H](Cc1ccccc1)NC(=O)[C@H](Cc1cnc[nH]1)NC(=O)[C@H](Cc1ccc(O)cc1)NC(=O)[C@@H](N)Cc1ccc(O)cc1)C(C)C)[C@@H](C)O)C(=O)N[C@@H](CCC(N)=O)C(=O)N[C@@H](CCCN=C(N)N)C(=O)O [YYHFWHRGVTKRSLSPHRPRHSRLQR] | MIC [12]: 4 µM (≈ 13.4 µg/mL); MIC [13]: 4 µM (≈ 13.4 µg/mL); MIC [14]: 2 µM (≈ 6.72 µg/mL); MIC [15]: 4 µM (≈ 13.4 µg/mL); MIC [16]: 4 µM (≈ 13.4 µg/mL); MIC [17]: 2 µM (≈ 6.72 µg/mL); MIC [19]: 6 µM (≈ 20.2 µg/mL); MIC [21]: 6 µM (≈ 20.2 µg/mL)
 |  |  |  |  |  |  |  |  |  |  | > 22.3 µM |  | NC(N)=NCCC[C@H](NC(=O)[C@H](Cc1cnc[nH]1)NC(=O)[C@H](CO)NC(=O)[C@H](CCCN=C(N)N)NC(=O)[C@H](CCCN=C(N)N)NC(=O)[C@H](CS)NC(=O)[C@H](CCCN=C(N)N)NC(=O)[C@H](Cc1cnc[nH]1)NC(=O)[C@H](Cc1cnc[nH]1)NC(=O)[C@@H](N)CO)C(=O)N[C@@H](CS)C(=O)O [SHHRCRRSHRC] | MIC [22]: > 22.3 µM; MIC [23]: 22.3 µM (≈ 32 µg/mL); MIC [24]: 22.3 µM (≈ 32 µg/mL); MIC [25]: > 22.3 µM; MIC [26]: > 22.3 µM; MIC [27]: > 22.3 µM
